The record followed here is patent US9765075B2, “Substituted bridged urea analogs as sirtuin modulators” (GLAXOSMITHKLINE LLC, priority 2013, dated 2017).

This assay deals with T1, SIRT1 (Homo sapiens, UniProt Q96EB6).
T1 sequence (Q96EB6 1-747): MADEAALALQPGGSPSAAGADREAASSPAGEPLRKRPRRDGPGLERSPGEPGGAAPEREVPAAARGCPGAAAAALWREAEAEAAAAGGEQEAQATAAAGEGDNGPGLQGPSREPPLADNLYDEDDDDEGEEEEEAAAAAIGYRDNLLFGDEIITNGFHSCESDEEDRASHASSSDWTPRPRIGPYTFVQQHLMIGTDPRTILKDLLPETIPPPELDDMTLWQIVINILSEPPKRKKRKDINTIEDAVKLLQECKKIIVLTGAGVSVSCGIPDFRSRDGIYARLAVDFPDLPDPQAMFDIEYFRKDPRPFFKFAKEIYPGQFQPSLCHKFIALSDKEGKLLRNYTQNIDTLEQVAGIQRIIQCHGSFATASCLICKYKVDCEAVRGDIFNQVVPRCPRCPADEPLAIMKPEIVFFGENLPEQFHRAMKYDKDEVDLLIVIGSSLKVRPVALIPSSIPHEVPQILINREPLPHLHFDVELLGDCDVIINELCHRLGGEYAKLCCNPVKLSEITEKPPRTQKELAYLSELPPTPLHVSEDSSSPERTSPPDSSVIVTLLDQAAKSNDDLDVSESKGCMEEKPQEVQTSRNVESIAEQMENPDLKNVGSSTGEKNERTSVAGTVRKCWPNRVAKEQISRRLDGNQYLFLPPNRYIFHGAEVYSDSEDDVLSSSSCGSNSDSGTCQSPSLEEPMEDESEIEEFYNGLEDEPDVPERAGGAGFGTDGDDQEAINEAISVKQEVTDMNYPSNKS
As to the kind of experiment: Trp mass spectrometry assay (SIRT1 activation). It is filed as biochemical. As to conditions: Trp peptide substrate; for Tryp AVG EC1.5 (μM): concentration of test compound that results in 150% activation of SIRT1; for Emax: percent maximum fold activation of SIRT1, read-out: Tryp % Fold Act. In a few lines:
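Activation is expressed as EC1.5, the concentration raising activity 50% above DMSO control, and as maximum percent of control. Mass-spec readout was OAADPR or deacetylated Trp peptide after a formic-acid-quenched 25-min, 25 °C reaction: 10 nM bacterially expressed His-SIRT1, 0.5 μM acetyl-p53-derived peptide, 120 μM NAD+, pH 7.5 HEPES with […].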

SMILES strings stand for the structures.

Regarding `COc1cccc(-c2ccc3c(n2)N(C(=O)Nc2ccccn2)[C@@H]2CCN3C2)c1` [Example 219], the “Tryp AVG EC1.5 (μM)” value is on record as “B (EC1.5 1-25 μM)” and the Emax was at least 150%.

In the case of `Cc1cc(-c2ccc3c(n2)N(C(=O)Nc2ccccn2)[C@H]2CCN3C2)ccn1` [Example 220], the “Tryp AVG EC1.5 (μM)” value is reported as “A (EC1.5<1 μM)” and the Emax was at least 150%.

For the compound `Cc1ccc(-c2ccc3c(n2)N(C(=O)Nc2ccccn2)[C@H]2CCN3C2)cn1` [Example 221], the “Tryp AVG EC1.5 (μM)” value is listed as “B (EC1.5 1-25 μM)” and the Emax was at least 150%.

Turning to `Cc1cc(-c2ccc3c(n2)N(C(=O)Nc2cnccn2)[C@H]2CCN3C2)ccn1` [Example 222], the “Tryp AVG EC1.5 (μM)” value is given as “A (EC1.5<1 μM)” and the Emax was at least 150%.

Regarding `Cc1cc(-c2ccc3c(n2)N(C(=O)Nc2ccc(F)cn2)[C@H]2CCN3C2)ccn1` [Example 223], the “Tryp AVG EC1.5 (μM)” value was “A (EC1.5<1 μM)” and the Emax is at least 150%.

As for `Cc1ccc(-c2ccc3c(n2)N(C(=O)Nc2cncc(F)c2)[C@H]2CCN3C2)cn1` [Example 224], the “Tryp AVG EC1.5 (μM)” value is given as “B (EC1.5 1-25 μM)” and the Emax was at least 150%.

Take `N#Cc1cccc(-c2ccc3c(n2)N(C(=O)Nc2ccccn2)[C@@H]2CCCN3C2)c1` [Example 225]: the “Tryp AVG EC1.5 (μM)” value is listed as “B (EC1.5 1-25 μM)” and the Emax is at least 150%.

For the compound `N#Cc1cccc(-c2ccc3c(n2)N(C(=O)Nc2cccnn2)[C@@H]2CCCN3C2)c1` [Example 226], the “Tryp AVG EC1.5 (μM)” value was “B (EC1.5 1-25 μM)” and the Emax was at least 150%.

On to `N#Cc1cccc(-c2ccc3c(n2)N(C(=O)Nc2ccc(F)cn2)[C@@H]2CCCN3C2)c1` [Example 227], for which the “Tryp AVG EC1.5 (μM)” value is reported as “B (EC1.5 1-25 μM)” and the Emax is at least 150%.

`N#Cc1cccc(-c2ccc3c(n2)N(C(=O)Nc2cncc(F)c2)[C@@H]2CCCN3C2)c1` [Example 228]: the “Tryp AVG EC1.5 (μM)” value was “B (EC1.5 1-25 μM)” and the Emax is at least 150%.

Take `O=C(Nc1cccnc1)N1c2nc(N3CCCC(C(F)(F)F)C3)ccc2N2CC[C@H]1C2` (some centres unmarked) [Example 229]: the “Tryp AVG EC1.5 (μM)” value was “B (EC1.5 1-25 μM)” and the Emax is at least 150%.

`Cc1cncc(NC(=O)N2c3nc(N4CCCC(C(F)(F)F)C4)ccc3N3CC[C@H]2C3)c1` (some centres unmarked) [Example 230]: the “Tryp AVG EC1.5 (μM)” value is reported as “A (EC1.5<1 μM)” and the Emax was at least 150%.

Turning to `Cc1cc(NC(=O)N2c3nc(N4CCCC(C(F)(F)F)C4)ccc3N3CC[C@H]2C3)cc(C)n1` (some centres unmarked) [Example 231], the “Tryp AVG EC1.5 (μM)” value was “B (EC1.5 1-25 μM)” and the Emax is at least 150%.

Regarding `O=C(Nc1cncc(F)c1)N1c2nc(N3CCCC(C(F)(F)F)C3)ccc2N2CC[C@H]1C2` (some centres unmarked) [Example 232], the “Tryp AVG EC1.5 (μM)” value is “B (EC1.5 1-25 μM)” and the Emax was at least 150%.

For `O=C(Nc1cccc(-c2cnco2)c1)N1c2nc(-c3cccc(C(F)(F)F)c3)ccc2N2CC[C@@H]1C2` [Example 233], the “Tryp AVG EC1.5 (μM)” value is “A (EC1.5<1 μM)” and the Emax was at least 150%.

For `O=C(Nc1ccncn1)N1c2nc(-c3cccc(Cl)c3)ccc2N2CC[C@@H]1C2` [Example 234], the “Tryp AVG EC1.5 (μM)” value is “B (EC1.5 1-25 μM)” and the Emax is at least 150%.

Take `O=C(Nc1cccc(-c2cnco2)c1)N1c2nc(-c3cccc(Cl)c3)ccc2N2CC[C@@H]1C2` [Example 235]: the “Tryp AVG EC1.5 (μM)” value is given as “A (EC1.5<1 μM)” and the Emax is at least 150%.

Take `Cc1ccc(-c2ccc3c(n2)N(C(=O)Nc2cnccn2)[C@H]2CCN3C2)cn1` [Example 236]: the “Tryp AVG EC1.5 (μM)” value is given as “B (EC1.5 1-25 μM)” and the Emax was at least 150%.

Turning to `Cc1ccc(-c2ccc3c(n2)N(C(=O)Nc2ccc(F)cn2)[C@H]2CCN3C2)cn1` [Example 237], the “Tryp AVG EC1.5 (μM)” value is “B (EC1.5 1-25 μM)” and the Emax is at least 150%.

As to `Cc1cc(-c2ccc3c(n2)N(C(=O)Nc2cncc(F)c2)[C@H]2CCN3C2)ccn1` [Example 238], the “Tryp AVG EC1.5 (μM)” value is listed as “B (EC1.5 1-25 μM)” and the Emax was at least 150%.

With `O=C(Nc1cnccn1)N1c2nc(-c3cccc(N4CCC(F)(F)C4)c3)ccc2N2CC[C@H]1C2` [Example 239], the “Tryp AVG EC1.5 (μM)” value was “A (EC1.5<1 μM)” and the Emax was at least 150%.

Consider `COc1cc(NC(=O)N2c3nc(-c4ccnc(C)c4)ccc3N3CC[C@H]2C3)ncn1` [Example 240], for which the “Tryp AVG EC1.5 (μM)” value is recorded as “B (EC1.5 1-25 μM)” and the Emax was at least 150%.

Consider `CN(C)[C@H]1CCN(c2ccc3c(n2)N(C(=O)Nc2cccnc2)[C@H]2CCN3C2)C1` [Example 242], for which the “Tryp AVG EC1.5 (μM)” value is on record as “B (EC1.5 1-25 μM)” and the Emax is at least 150%.

On to `Cc1cncc(NC(=O)N2c3nc(N4CC[C@H](N(C)C)C4)ccc3N3CC[C@H]2C3)c1` [Example 243], for which the “Tryp AVG EC1.5 (μM)” value is reported as “C (EC1.5>25 μM)” and the Emax is at least 150%.

Regarding `CN(C)[C@H]1CCN(c2ccc3c(n2)N(C(=O)Nc2cncc(F)c2)[C@H]2CCN3C2)C1` [Example 244], the “Tryp AVG EC1.5 (μM)” value is listed as “B (EC1.5 1-25 μM)” and the Emax was at least 150%.

With `Cc1cc(NC(=O)N2c3nc(N4CC[C@H](N(C)C)C4)ccc3N3CC[C@H]2C3)cc(C)n1` [Example 245], the “Tryp AVG EC1.5 (μM)” value is “B (EC1.5 1-25 μM)” and the Emax is at least 150%.

Regarding `CN(C)[C@H]1CCN(c2ccc3c(n2)N(C(=O)Nc2cnccn2)[C@H]2CCN3C2)C1` [Example 246], the “Tryp AVG EC1.5 (μM)” value is “B (EC1.5 1-25 μM)” and the Emax is at least 150%.

As to `CN(C)[C@H]1CCN(c2ccc3c(n2)N(C(=O)Nc2nccs2)[C@H]2CCN3C2)C1` [Example 247], the “Tryp AVG EC1.5 (μM)” value is reported as “B (EC1.5 1-25 μM)” and the Emax was at least 150%.

For the compound `O=C(Nc1ccncn1)N1c2nc(-c3cncc(Cl)c3)ccc2N2CC[C@H]1C2` [Example 249], the “Tryp AVG EC1.5 (μM)” value is listed as “B (EC1.5 1-25 μM)” and the Emax is at least 150%.

With `COc1cc(NC(=O)N2c3nc(-c4cncc(Cl)c4)ccc3N3CC[C@H]2C3)ncn1` [Example 250], the “Tryp AVG EC1.5 (μM)” value is on record as “A (EC1.5<1 μM)” and the Emax was at least 150%.

For the compound `CN(C)c1cccc(-c2ccc3c(n2)N(C(=O)Nc2ccccn2)[C@@H]2CCCN3C2)c1` [Example 251], the “Tryp AVG EC1.5 (μM)” value was “C (EC1.5>25 μM)” and the Emax was at least 150%.

For `Cc1nc(NC(=O)N2c3nc(-c4cccc(N(C)C)c4)ccc3N3CCC[C@@H]2C3)sc1C` [Example 252], the “Tryp AVG EC1.5 (μM)” value is given as “C (EC1.5>25 μM)” and the Emax is at least 150%.

Take `CN(C)c1cccc(-c2ccc3c(n2)N(C(=O)Nc2ccc(F)cn2)[C@@H]2CCCN3C2)c1` [Example 253]: the “Tryp AVG EC1.5 (μM)” value is “C (EC1.5>25 μM)” and the Emax was below 150%.

With `O=C(Nc1ccccn1)N1c2nc(-c3cccc(N4CCC(F)(F)C4)c3)ccc2N2CC[C@H]1C2` [Example 254], the “Tryp AVG EC1.5 (μM)” value is “A (EC1.5<1 μM)” and the Emax is at least 150%.

Regarding `COc1cc(NC(=O)N2c3nc(-c4cccc(N5CC[C@H](F)C5)c4)ccc3N3CC[C@H]2C3)ncn1` [Example 255], the “Tryp AVG EC1.5 (μM)” value is recorded as “B (EC1.5 1-25 μM)” and the Emax was at least 150%.

For `COc1cc(NC(=O)N2c3nc(-c4cccc(N5CCC(F)(F)C5)c4)ccc3N3CC[C@H]2C3)ncn1` [Example 256], the “Tryp AVG EC1.5 (μM)” value is recorded as “B (EC1.5 1-25 μM)” and the Emax is at least 150%.

For the compound `O=C(Nc1ccc(F)cn1)N1c2nc(-c3cccc(N4CCC(F)(F)C4)c3)ccc2N2CC[C@H]1C2` [Example 257], the “Tryp AVG EC1.5 (μM)” value was “B (EC1.5 1-25 μM)” and the Emax is at least 150%.

Turning to `O=C(Nc1ccccn1)N1c2nc(Cl)ccc2N2CC[C@H]1C2` [Example 258], the “Tryp AVG EC1.5 (μM)” value is “C (EC1.5>25 μM)” and the Emax is at least 150%.

Take `O=C(Nc1cncc(F)c1)N1c2nc(Cl)ccc2N2CC[C@H]1C2` [Example 259]: the “Tryp AVG EC1.5 (μM)” value was “B (EC1.5 1-25 μM)” and the Emax was at least 150%.

As to `O=C(Nc1ccccn1)N1c2nc(-c3cncc(Cl)c3)ccc2N2CC[C@H]1C2` [Example 260], the “Tryp AVG EC1.5 (μM)” value was “A (EC1.5<1 μM)” and the Emax is at least 150%.

For the compound `O=C(Nc1ccc(F)cn1)N1c2nc(-c3cncc(Cl)c3)ccc2N2CC[C@H]1C2` [Example 261], the “Tryp AVG EC1.5 (μM)” value is reported as “A (EC1.5<1 μM)” and the Emax is at least 150%.

Regarding `O=C(Nc1ccccn1)N1c2nc(-c3ccc4c(c3)OC(F)(F)O4)ccc2N2CC[C@H]1C2` [Example 262], the “Tryp AVG EC1.5 (μM)” value was “B (EC1.5 1-25 μM)” and the Emax was at least 150%.

On to `COc1ncc(-c2ccc3c(n2)N(C(=O)Nc2ccccn2)[C@H]2CCN3C2)c(OC)n1` [Example 263], for which the “Tryp AVG EC1.5 (μM)” value is “B (EC1.5 1-25 μM)” and the Emax was at least 150%.
